Source: ChEMBL document CHEMBL1155928, “Synthesis and structure-activity relationships of berberine analogues as a novel class of low-density-lipoprotein receptor up-regulators” (2008)

These compounds were tested on HepG2 (assay: Upregulation of LDLR mRNA expression in human HepG2 cells after 8 hrs by RT-PCR relative to control).
Type: functional

Structure (SMILES)	Activity
Oc1ccc2cc3[n+](cc2c1)CCc1cc2c(cc1-3)OCO2.[Cl-]	5.16
CCCOc1cc2cc3[n+](cc2cc1OC)CCc1cc2c(cc1-3)OCO2.[Cl-]	2.35
COc1cc2cc3[n+](cc2c(OC)c1OC)CCc1cc2c(cc1-3)OCO2.[Cl-]	3.16
CCOc1ccc2cc3[n+](cc2c1OCC)CCc1cc2c(cc1-3)OCO2.[Cl-]	2.13
CCCOc1ccc2cc3[n+](cc2c1OCCC)CCc1cc2c(cc1-3)OCO2.[Cl-]	2.21
CCOc1ccc2cc3[n+](cc2c1OC)CCc1cc2c(cc1-3)OCO2.[Cl-]	2.35
CCCOc1ccc2cc3[n+](cc2c1)CCc1cc2c(cc1-3)OCO2.[Cl-]	2.13
COc1ccc2cc3[n+](cc2c1)CCc1cc2c(cc1-3)OCO2.[Cl-]	2
CCCOc1cc2c[n+]3c(cc2cc1OC)-c1cc2c(cc1CC3)OCO2.[Cl-]	1.94
COc1cc2c[n+]3c(cc2cc1O)-c1cc2c(cc1CC3)OCO2.[Cl-]	2.2
CCOc1cc2c[n+]3c(cc2cc1O)-c1cc2c(cc1CC3)OCO2.[Cl-]	1.8
CCOc1cc2c[n+]3c(cc2cc1OC)-c1cc2c(cc1CC3)OCO2.[Cl-]	2.17
CCOc1cc2cc3[n+](cc2cc1OC)CCc1cc2c(cc1-3)OCO2.[Cl-]	2.1
COc1cc2cc3[n+](cc2cc1O)CCc1cc2c(cc1-3)OCO2.[Cl-]	1.6
COc1cc2c[n+]3c(cc2c(OC)c1OC)-c1cc2c(cc1CC3)OCO2.[Cl-]	3.01
CCCOc1ccc2cc3[n+](cc2c1OC)CCc1cc2c(cc1-3)OCO2.[Cl-]	2.3
[Cl-].c1ccc2c[n+]3c(cc2c1)-c1cc2c(cc1CC3)OCO2	2.95
CCOc1ccc2cc3[n+](cc2c1)CCc1cc2c(cc1-3)OCO2.[Cl-]	2.9
COc1ccc2cc3[n+](cc2c1OC)CCc1cc2c(cc1-3)OCO2.[Cl-] [BERBERINE CHLORIDE]	5.3
COc1cc2cc3[n+](cc2cc1OC)CCc1cc2c(cc1-3)OCO2.[Cl-] [PSEUDOBERBERINE]	8.5
